Results on one molecule are retold here after patent US6878697B2, “Phenylamino-pyrimidines and uses thereof” (Ariad Pharmaceuticals, Inc., priority 2001, dated 2005).

This data set in a line: Hydroxyapatite assay (hydroxyapatite adsorption chromatography). Format: physicochemical. Particulars: corrected retention K=(retention time-void time)/void on TSK-Gel HA 1000 HPLC column; linear gradient 10 mM to 500 mM sodium phosphate, 0.15 N NaCl, pH 6.8. On the procedure:
Hydroxyapatite is the principal mineral component of bone. Hydroxyapatite adsorption chromatography is used as an assay to evaluate the bone-targeting potential of both individual bone-targeting moieties (“monomers”) and of pharmaceuticals incorporating bone-targeting groups.
Method: The rentention time of a test compound is measured using a linear gradient from 10 mM sodium phosphate, 0.15 N NaCl, pH=6.8 to 500 mM sodium phosphate, 0.15 N NaCl, […] on a TSK-Gel HA 1000 high pressure liquid chromatography column (7.5 mm×75 mm). The rentention time of the compound is expressed in terms of K=(retention time-void time)/void. This K value is corrected using two reference compounds to correct from inter-column and inter-system variation to obtain a K′ value.
Reference Compounds: K′ values were determined for known bone targeted compounds, the bisphosphonate, alendronate and tetracycline.

For `NCCCC(O)(P(=O)(O)O)P(=O)(O)O` [Alendronate, alendronate], the “K′ value” is recorded as 3.7.
